Measured values published in patent US20090044345A1, “Use of Metal Complex Compounds as Oxidation Catalysts” (priority 2006, published 2009).

How the values were obtained:
[1] = Stain bleaching in laundry at ambient temperature (hydrogen peroxide), tea stain; parameters: key: CIE brightness Y difference: washed with catalyst minus without; conditions: 10 mmol/l hydrogen peroxide; catalyst 25 μmol/l; IEC 60456* washing agent 7.5 g/l; 50 minutes at ambient temperature; brightness vs. absence of catalyst
Procedure: (§1) 1 g of a circular stain (BC01 Tea, CFT; WFK10.0 Carrot juice, WFK; CS20/2 Tomato, CFT; BC04 Curry, CFT) was added into a vial with 3 ml washing liquor. The liquor contained a standard washing agent (IEC 60456*) in a concentration of 7.5 g/l. The hydrogen peroxide concentration was 10 mmol/l. The catalyst concentration (1:1 in-situ complex of the ligand with manganese(II) chloride tetrahydrate or iron (ii) chloride in methanolic solution) was 25 μmol/l. The vial was shaken with a shaker for 50 minutes at ambient temperature. After the treatment the fabric was carefully rinsed and ironed. The brightness values Y according to the CIE standard procedure of the stained test fabrics were measured with a Gretag SPM 100 instrument prior to and after the treatment, respectively. The bleaching effect is given as ΔΔY, i.e. the difference between the brightness of the fabrics washed in presence and in the absence of a catalyst, respectively.

[2] = Stain bleaching in laundry at ambient temperature (hydrogen peroxide), carrot juice stain; parameters: key: CIE brightness Y difference: washed with catalyst minus without; conditions: 10 mmol/l hydrogen peroxide; catalyst 25 μmol/l; IEC 60456* washing agent 7.5 g/l; 50 minutes at ambient temperature; brightness vs. absence of catalyst
Procedure: as §1

[3] = Stain bleaching in laundry at ambient temperature (hydrogen peroxide), tomato stain; parameters: key: CIE brightness Y difference: washed with catalyst minus without; conditions: 10 mmol/l hydrogen peroxide; catalyst 25 μmol/l; IEC 60456* washing agent 7.5 g/l; 50 minutes at ambient temperature; brightness vs. absence of catalyst
Procedure: as §1

[4] = Stain bleaching in laundry at ambient temperature (hydrogen peroxide), curry stain; parameters: key: CIE brightness Y difference: washed with catalyst minus without; conditions: 10 mmol/l hydrogen peroxide; catalyst 25 μmol/l; IEC 60456* washing agent 7.5 g/l; 50 minutes at ambient temperature; brightness vs. absence of catalyst
Procedure: as §1

[5] = Stain bleaching in laundry at 40° C.; parameters: key: CIE brightness increase of stain vs. reference run without catalyst; conditions: tea-stained cotton; 10 mmol/l hydrogen peroxide; catalyst 20 μmol/l; IEC 60456 A* detergent 7.5 g/l; LINITEST 30 minutes at 40° C.; relative to no catalyst
Procedure: 7.5 g of white cotton fabric and 2.5 g of tea-stained cotton fabric were treated in 80 ml of washing liquor. The liquor contained a standard detergent (IEC 60456 A*) in a concentration of 7.5 g/l. The hydrogen peroxide concentration was 10 mmol/l. The catalyst concentration (1:1 in-situ complex of the ligand with manganese(II) chloride tetrahydrate in methanolic solution) was 20 μmol/l. The washing process was carried out in a steel beaker in a LINITEST apparatus for 30 minutes at 40° C. To evaluate the bleaching results, the increase in brightness ΔΔY of the stains relative to reference experiments without the addition of catalyst (brightness according to CIE) was determined spectrophotometrically.

[6] = Dishwashing: removal of tea deposit from tea-stained cups (IKW method); parameters: key: visual scale 0 = unchanged, very strong deposit to 10 = no deposit; conditions: visual scale 0 (very strong deposit) to 10 (no deposit); carbonate buffer pH 9.6, 44 mM hydrogen peroxide, 20 μM catalyst, 15 minutes; reference without catalyst 4.5
Procedure: Tea-stained cups were prepared according to the IKW method (IKW-Arbeitskreis Maschinenspülmittel, “Methoden zur Bestimmung der Reinigungsleistung von maschinellen Geschirrspülmitteln (Part A and B)”, SÖFW, 11+14, 1998). Tea-stained cups were filled with a carbonate buffer solution (pH 9.6) containing 44 mM hydrogen peroxide and 20 μM catalyst (1:1 in-situ complex of the ligand with manganese(II) chloride tetrahydrate in methanolic solution). After 15 minutes the solution was removed, and the cups were rinsed with water. The removal of the tea deposit was evaluated visually on a scale from 0 (i.e. unchanged, very strong deposit) to 10 (i.e. no deposit).

[7] = Stain bleaching in laundry with peracetic acid as oxidant, tea stain; conditions: peracetic acid 3 mmol/l; catalyst 10 μmol/l; IEC 60456* washing agent 7.5 g/l; 50 minutes at ambient temperature; vs. absence of catalyst
Procedure: as §1, with “CFT; WFK 0.0” for “CFT; WFK10.0”, “The peracetic acid” for “The hydrogen peroxide”, “was 3” for “was 10”, “was 10” for “was 25”, “presence vs.” for “presence and in”

[8] = Stain bleaching in laundry with peracetic acid as oxidant, carrot juice stain; conditions: peracetic acid 3 mmol/l; catalyst 10 μmol/l; IEC 60456* washing agent 7.5 g/l; 50 minutes at ambient temperature; vs. absence of catalyst
Procedure: as §1, with “CFT; WFK 0.0” for “CFT; WFK10.0”, “The peracetic acid” for “The hydrogen peroxide”, “was 3” for “was 10”, “was 10” for “was 25”, “presence vs.” for “presence and in”

[9] = Stain bleaching in laundry with peracetic acid as oxidant, tomato stain; conditions: peracetic acid 3 mmol/l; catalyst 10 μmol/l; IEC 60456* washing agent 7.5 g/l; 50 minutes at ambient temperature; vs. absence of catalyst
Procedure: as §1, with “CFT; WFK 0.0” for “CFT; WFK10.0”, “The peracetic acid” for “The hydrogen peroxide”, “was 3” for “was 10”, “was 10” for “was 25”, “presence vs.” for “presence and in”

[10] = Stain bleaching in laundry with peracetic acid as oxidant, curry stain; conditions: peracetic acid 3 mmol/l; catalyst 10 μmol/l; IEC 60456* washing agent 7.5 g/l; 50 minutes at ambient temperature; vs. absence of catalyst
Procedure: as §1, with “CFT; WFK 0.0” for “CFT; WFK10.0”, “The peracetic acid” for “The hydrogen peroxide”, “was 3” for “was 10”, “was 10” for “was 25”, “presence vs.” for “presence and in”

## CN(Cc1ccccn1)Cc1cc(O)cc(-c2cc(N3CCCC3)ccn2)n1 [Ligand 27-Mn, 6-[(methyl-pyridin-2-ylmethyl-amino)-methyl]-4′-pyrrolidin-1-yl-[2,2′]bipyridinyl-4-ol]
[1]
  ΔΔY (Tea): 5.3
[2]
  ΔΔY (Carrot Juice): 1.3
[3]
  ΔΔY (Tomato): 4.7
[4]
  ΔY Δ(Curry): 8.2
[5]
  ΔΔY: 2.7
[6]
  Rating: 6.7

## CN1CCN(c2ccnc(-c3cc(O)cc(CN(C)Cc4ccccn4)n3)c2)CC1 [Ligand 29/Fe, 4′-(4-methyl-piperazin-1-yl)-6-[(methyl-pyridin-2-ylmethyl-amino)-methyl]-[2,2′]bipyridinyl-4-ol]
[5]
  ΔΔY: 5.0

## CN(Cc1cc(-n2cccc2)ccn1)Cc1cc(O)cc(-c2cc(N(C)C)ccn2)n1 [Ligand 40c-Mn, 4′-dimethylamino-6-{[methyl-(4-pyrrol-1-yl-pyridin-2-ylmethyl)-amino]-methyl}-[2,2′]bipyridinyl-4-ol]
[1]
  ΔΔY (Tea): 3.9
[2]
  ΔΔY (Carrot Juice): 2.5
[3]
  ΔΔY (Tomato): 1.3
[4]
  ΔY Δ(Curry): 4.9
[5]
  ΔΔY: 2.2
[6]
  Rating: 6.8

## CN(Cc1ccccn1)Cc1cc(O)cc(-c2cc(N3CC[N+](C)(C)CC3)ccn2)n1.[I-] [Ligand 30-Mn, 4-{4′-hydroxy-6′-[(methyl-pyridin-2-ylmethyl-amino)-methyl]-[2,2′]bipyridinyl-4-yl}-1,1-dimethyl-piperazin-1-ium iodide]
[1]
  ΔΔY (Tea): 7.0
[2]
  ΔΔY (Carrot Juice): 3.6
[3]
  ΔΔY (Tomato): 7.4
[4]
  ΔY Δ(Curry): 7.1
[5]
  ΔΔY: 4.5
[6]
  Rating: 7.8

## CN(Cc1ccccn1)Cc1cc(O)cc(-c2ccccn2)n1 [Ligand 23-Mn, 6-[(methyl-pyridin-2-ylmethyl-amino)-methyl]-[2,2′]bipyridinyl-4-ol]
[1]
  ΔΔY (Tea): 2.9
[2]
  ΔΔY (Carrot Juice): 1.3
[3]
  ΔΔY (Tomato): 0.6
[4]
  ΔY Δ(Curry): 7.4
[5]
  ΔΔY: 2.1
[6]
  Rating: 6.0

## CN(Cc1cc(N(C)C)ccn1)Cc1cc(O)cc(-c2cc(N(C)C)ccn2)n1 [Ligand 40a-Mn, 4′-dimethylamino-6-{[(4-dimethylamino-pyridin-2-ylmethyl)-methyl-amino]-methyl}-[2,2′]bipyridinyl-4-ol]
[1]
  ΔΔY (Tea): 7.0
[2]
  ΔΔY (Carrot Juice): 5.0
[3]
  ΔΔY (Tomato): 5.0
[4]
  ΔY Δ(Curry): 3.0
[5]
  ΔΔY: 3.0
[7]
  ΔΔY (Tea): 7.0
[8]
  ΔΔY (Carrot Juice): 1.6
[9]
  ΔΔY (Tomato): 3.5
[10]
  ΔΔY (Curry): 6.4
[6]
  Rating: 5.9

## CN(Cc1cc(N(C)C)ccn1)Cc1cc(O)cc(-c2cc(N(C)CCO)ccn2)n1 [Ligand 33-Mn, 6-{[(4-dimethylamino-pyridin-2-ylmethyl)-methyl-amino]-methyl}-4′-[(2-hydroxy-ethyl)-methyl-amino]-[2,2′]bipyridinyl-4-ol]
[1]
  ΔΔY (Tea): 5.5
[2]
  ΔΔY (Carrot Juice): 3.9
[3]
  ΔΔY (Tomato): 6.0
[4]
  ΔY Δ(Curry): 9.1
[5]
  ΔΔY: 3.9
[7]
  ΔΔY (Tea): 6.1
[8]
  ΔΔY (Carrot Juice): 3.4
[9]
  ΔΔY (Tomato): 1.5
[10]
  ΔΔY (Curry): 5.7
[6]
  Rating: 7.1

## CN1CCN(c2ccnc(-c3cc(O)cc(CN(C)Cc4ccccn4)n3)c2)CC1 [Ligand 29-Mn, 4′-(4-methyl-piperazin-1-yl)-6-[(methyl-pyridin-2-ylmethyl-amino)-methyl]-[2,2′]bipyridinyl-4-ol]
[1]
  ΔΔY (Tea): 6.4
[2]
  ΔΔY (Carrot Juice): 3.1
[3]
  ΔΔY (Tomato): 4.4
[4]
  ΔY Δ(Curry): 8.3
[6]
  Rating: 6.1

## CN(Cc1cc(N2CCCC2)ccn1)Cc1cc(O)cc(-c2cc(N3CCCC3)ccn2)n1 [Ligand 39-Mn, 6-{[methyl-(4-pyrrolidin-1-yl-pyridin-2-ylmethyl)-amino]-methyl}-4′-pyrrolidin-1-yl-[2,2′]bipyridinyl-4-ol]
[1]
  ΔΔY (Tea): 5.1
[2]
  ΔΔY (Carrot Juice): 4.2
[3]
  ΔΔY (Tomato): 8.8
[4]
  ΔY Δ(Curry): 7.9
[5]
  ΔΔY: 4.0
[6]
  Rating: 6.3

## CN(Cc1cc(N(C)C)ccn1)Cc1cc(O)cc(-c2cc(N3CCCC3)ccn2)n1 [Ligand 32-Mn, 6-{[(4-dimethylamino-pyridin-2-ylmethyl)-methyl-amino]-methyl}-4′-pyrrolidin-1-yl-[2,2′]bipyridinyl-4-ol]
[1]
  ΔΔY (Tea): 6.4
[2]
  ΔΔY (Carrot Juice): 3.1
[3]
  ΔΔY (Tomato): 5.6
[4]
  ΔY Δ(Curry): 8.5
[5]
  ΔΔY: 4.5
[7]
  ΔΔY (Tea): 5.6
[8]
  ΔΔY (Carrot Juice): 2.5
[9]
  ΔΔY (Tomato): 1.2
[10]
  ΔΔY (Curry): 5.3
[6]
  Rating: 6.0

## CN(Cc1cc(N(C)C)ccn1)Cc1cc(N(C)C)cc(-c2cc(N(C)C)ccn2)n1 [Ligand 40b-Mn]
[1]
  ΔΔY (Tea): 1.7
[2]
  ΔΔY (Carrot Juice): 2.7
[3]
  ΔΔY (Tomato): 2.3
[4]
  ΔY Δ(Curry): 3.7
[5]
  ΔΔY: 1.0
[6]
  Rating: 5.8

## COc1c(C)cnc(CN(C)Cc2cc(O)cc(-c3cc(N4CCCC4)ccn3)n2)c1C [Ligand 36-Mn, 6-{[(4-methoxy-3,5-dimethyl-pyridin-2-ylmethyl)-methyl-amino]-methyl}-4′-pyrrolidin-1-yl-[2,2′]bipyridinyl-4-ol]
[1]
  ΔΔY (Tea): 4.0
[2]
  ΔΔY (Carrot Juice): 3.3
[3]
  ΔΔY (Tomato): 4.9
[4]
  ΔY Δ(Curry): 6.3
[5]
  ΔΔY: 1.6
[6]
  Rating: 6.9
